Test results reported in patent publication US10175228B2, “Method of using transmembrane channel-like protein 6 (TMC6) protein to identify substances affecting salty taste” (priority 2016, dated 2019).

Target: T1, mouse TMC6 protein (Mus musculus, UniProt Q7TN60, A788T)
T1 construct: expressed in transfected cells; host or cells: CHO-K1
T1 sequence (Q7TN60 1-810 A788T): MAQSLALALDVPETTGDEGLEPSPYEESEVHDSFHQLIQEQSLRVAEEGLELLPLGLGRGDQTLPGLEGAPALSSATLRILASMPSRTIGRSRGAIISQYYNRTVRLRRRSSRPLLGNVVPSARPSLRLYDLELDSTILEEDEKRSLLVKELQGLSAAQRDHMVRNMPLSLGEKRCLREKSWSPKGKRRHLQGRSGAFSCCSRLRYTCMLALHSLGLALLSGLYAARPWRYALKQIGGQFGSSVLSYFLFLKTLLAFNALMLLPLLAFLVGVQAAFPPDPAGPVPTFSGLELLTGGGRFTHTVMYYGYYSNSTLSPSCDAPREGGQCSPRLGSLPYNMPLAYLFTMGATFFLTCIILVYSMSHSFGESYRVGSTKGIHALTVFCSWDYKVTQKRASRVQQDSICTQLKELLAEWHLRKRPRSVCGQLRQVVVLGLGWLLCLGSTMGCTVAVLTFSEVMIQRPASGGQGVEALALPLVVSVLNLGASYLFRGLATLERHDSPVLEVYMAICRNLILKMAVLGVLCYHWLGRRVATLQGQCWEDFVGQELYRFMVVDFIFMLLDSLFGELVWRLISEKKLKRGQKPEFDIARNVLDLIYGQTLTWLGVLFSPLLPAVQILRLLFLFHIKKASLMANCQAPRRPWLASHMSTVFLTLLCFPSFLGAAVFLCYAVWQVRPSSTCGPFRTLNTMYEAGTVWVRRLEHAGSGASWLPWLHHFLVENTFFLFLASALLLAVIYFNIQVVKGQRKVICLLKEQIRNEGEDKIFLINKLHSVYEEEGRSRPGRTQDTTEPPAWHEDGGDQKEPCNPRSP
Assay: Calcium imaging (YC2.60 FRET) of CHO-K1 cells expressing the mouse TMC6 gene
Type: cell-based
Procedure: CHO-K1 cells were transfected with TMC6-pcDNA3.1 or pcDNA3.1 in combination with YC2.60-pcDNA, to prepare TMC6-expressing cells (cells expressing the mouse TMC6 gene and the YC2.60 gene) and control cells (cells expressing the YC2.60 gene). The prepared cells were stimulated, and activation of the cells was measured. The procedure was as follows.
That is, first, CHO-K1 cells (ATCC) were inoculated into a culture dish having a diameter of 60 mm while adjusting the number of the cells to obtain 60% confluence, and cultured for 8 hr. As the medium, 5 mL of Ham's F-12K (Kaighn's) (Life Technologies) containing 10% fetal bovine serum (Life Technologies) was used. A 15 μL aliquot of FuGENE 6 (Promega) was added to 235 μL of Opti-MEM (Thermo Fisher Scientific), and incubated for 5 min at a room temperature. Then, 0.625 μg of TMC6-pcDNA3.1 and 2.5 μg of YC2.60-pcDNA were further added thereto, and incubated for 15 min at a room temperature. Then, the whole of the resultant mixture was dropped into the culture broth of the CHO-K1 cells, and the culture broth was mildly stirred. Then, the cells were further cultured for 18 hr under a condition of 5% CO2 at 37° C., to obtain the TMC6-expressing cells. Similarly, the control cells were obtained through transfection using pcDNA3.1 instead of TMC6-pcDNA3.1.
After the cultivation, the culture broth was removed. A low-concentration NaCl solution (27 mM NaCl, 1 mM KCl, 0.4 mM CaCl2, 0.2 mM MgCl2, 2 mM Hepes (pH7.3), 1 mM NaHCO3, 2 mM glucose, 2 mM sodium pyruvate, and 112 mM NMDG-Cl) was added to the culture dish, incubation was carried out statically for 5 min, and then, stimulation and observation of cells were started. First, the low-concentration NaCl solution was perfused for approximately 80 sec, to provide a ground state. Then, a high-concentration NaCl solution (135 mM NaCl, 1 mM KCl, 0.4 mM CaCl2, 0.2 mM MgCl2, 2 mM Hepes (pH7.3), 1 mM NaHCO3, 2 mM glucose, and 2 mM sodium pyruvate) was perfused instead of the low-concentration NaCl solution for approximately 60 sec, to stimulate the cells. […]

`[Cl-].[Na+]` [NaCl, sodium chloride] was tested, and the “relative FRET value (YFP/CFP) of the ROI-1 cell” value (one typical TMC6-expressing cell, stimulation with high-concentration NaCl solution (135 mM NaCl), FIG. 13C) was “approximately 1.2” and the “change of YFP/CFP value (intracellular calcium concentration, cell activation)” value (stimulation with high-concentration NaCl solution (135 mM NaCl) for approx. 60 sec after 27 mM NaCl ground state) was “increase”.
